Assay results published in Sander's compilation of Henry's law constants (doi:10.1246/bcsj.55.1054).

Test: Henry solubility constant Hcp at 298.15 K (mol/(m3 Pa))
Details: reference: Sanemasa et al. (1982)

| Compound | Henry solubility constant Hcp |
| --- | --- |
| CCc1ccccc1 [ethylbenzene] | 0.0013 |
| Cc1ccc(C)cc1 [1,4-dimethylbenzene] | 0.0013 |
| CCCc1ccccc1 [propylbenzene] | 0.00095 |
| Cc1ccc(C)c(C)c1 [1,2,4-trimethylbenzene] | 0.0016 |
| Cc1ccccc1C [1,2-dimethylbenzene] | 0.0019 |
| c1ccccc1 [benzene] | 0.0017 |
| Cc1cccc(C)c1C [1,2,3-trimethylbenzene] | 0.0024 |
| Cc1cc(C)cc(C)c1 [1,3,5-trimethylbenzene] | 0.0011 |
| Cc1cccc(C)c1 [1,3-dimethylbenzene] | 0.0014 |
| Cc1ccccc1 [methylbenzene] | 0.0015 |
| CC(C)c1ccccc1 [(2-propyl)-benzene] | 0.00089 |
